Drawing on US8729095B2, “3-(biaryloxy)propionic acid derivatives for prevention and/or treatment of thromboembolic diseases” (Daiichi Sankyo Company, Limited, priority 2009, dated 2014), this text covers IC50 for 22 compounds.

This test deals with platelet aggregation induced by ADP in human platelet-rich plasma (PRP). Briefly: Human platelet aggregation inhibitory activity (ADP-induced, platelet-rich plasma). Format: cell-based. The conditions noted are these: 8 min, ADP final concentration 20 μM, maximum aggregation rate, measured for 8 minutes. The procedure:
A blood collecting syringe containing 1/10 volume of a 3.8% sodium citrate solution was used to collect blood from radial vein of a healthy person. The collected blood was centrifuged at 180×g at room temperature for 10 minutes to separate the supernatant (platelet-rich plasma; PRP). After PRP was separately collected, the remaining blood was centrifuged at 1,600×g for 10 minutes to separately collect platelet-poor plasma (PPP) of the upper layer. PRP was left at rest at 16° C. for 30 minutes, and subsequently used for measurement.
200 μL of the separately collected PRP was dispensed into a cuvette for the aggregation test, and 1 μL of dimethylsulfoxide (control) or a test compound solution diluted with dimethylsulfoxide was added, followed by incubation at 37° C. for 2 minutes. Subsequently, 2 μL of 2 mM ADP was added (final concentration 20 μM) to induce platelet aggregation.
Platelet aggregation was measured for 8 minutes using an aggregometer (MCM HEMA TRACER 313M; MC MEDICAL, INC.). With the light transmittance rate of PPP being set as an aggregation value of 100%, the maximum aggregation rate was determined for each concentration of the test compounds to calculate IC50 values.

In the case of `C[C@H](CC(=O)O)Oc1ccccc1-c1cnc(C(=O)N2CCC(N3C(=O)C(C)(C)Oc4ncc(Cl)cc43)CC2)c(F)c1` [Example 39, (3R)-3-[2-(6-{[4-(7-Chloro-3,3-dimethyl-2-oxo-2,3-dihydro-1H-pyrido[2,3-b][1,4]oxazin-1-yl)piperidin-1-yl]carbonyl}-5-fluoropyridin-3-yl)phenoxy]butanoic acid], 1 µM corresponded to half-maximal inhibition (IC50).
Next, `C[C@H](CC(=O)O)Oc1ccc(F)cc1-c1cnc(C(=O)N2CCC(N3C(=O)[C@H](C)Oc4ncc(Cl)cc43)CC2)c(F)c1` [Example 43, (3R)-3-{2-[6-({4-[(3S)-7-Chloro-3-methyl-2-oxo-2,3-dihydro-1H-pyrido[2,3-b][1,4]oxazin-1-yl]piperidin-1-yl}carbonyl)-5-fluoropyridin-3-yl]-4-fluorophenoxy}butanoic acid]: 2.6 µM; `C[C@@H]1Oc2ncc(F)cc2N(C2CCN(C(=O)c3ccc(-c4ccccc4OCC(C)(C)C(=O)O)cc3F)CC2)C1=O` [Example 1, 3-{[3′-Fluoro-4′-({4-[(3S)-7-fluoro-3-methyl-2-oxo-2,3-dihydro-1H-pyrido[2,3-b][1,4]oxazin-1-yl]piperidin-1-yl}carbonyl)biphenyl-2-yl]oxy}-2,2-dimethylpropanoic acid]: 15 µM; `Cc1cc(-c2ccccc2OCC(C)(C)C(=O)O)ccc1C(=O)N1CCC(N2C(=O)C3(CC3)Oc3ncc(Cl)cc32)CC1` [Example 15, 3-[(4′-{[4-(7′-Chloro-2′-oxospiro[cyclopropane-1,3′-pyrido[2,3-b][1,4]oxazin]-1′(2′H)-yl)piperidin-1-yl]carbonyl}-3′-methylbiphenyl-2-yl)oxy]-2,2-dimethylpropanoic acid]: 5.8 µM.
Under `Cc1cc(-c2ccccc2O[C@H](C)CC(=O)O)c(C)cc1C(=O)N1CCC(N2C(=O)C(C)(C)Oc3ncc(Cl)cc32)CC1` [Example 54, (3R)-3-[(4′-{[4-(7-Chloro-3,3-dimethyl-2-oxo-2,3-dihydro-1H-pyrido[2,3-b][1,4]oxazin-1-yl)piperidin-1-yl]carbonyl}-2′,5′-dimethylbiphenyl-2-yl)oxy]butanoic acid] stands 11.4 µM.
Next, `CC(C)(COc1ccccc1-c1ccc(C(=O)N2CCC(N3C(=O)C(C)(C)Oc4ncc(Cl)cc43)CC2)c(O)c1)C(=O)O` [Example 21, 3-[(4′-{[4-(7-Chloro-3,3-dimethyl-2-oxo-2,3-dihydro-1H-pyrido[2,3-b][1,4]oxazin-1-yl)piperidin-1-yl]carbonyl}-3′-hydroxybiphenyl-2-yl)oxy]-2,2-dimethylpropanoic acid]: 8.7 µM.
Turning to `Cc1cnc2c(c1)N(C1CCN(C(=O)c3ccc(-c4ccccc4OCC(C)(C)C(=O)O)cc3F)CC1)C(=O)C(C)O2` (stereo not shown) [Example 4, 3-[(4′-{[4-(3,7-Dimethyl-2-oxo-2,3-dihydro-1H-pyrido[2,3-b][1,4]oxazin-1-yl)piperidin-1-yl]carbonyl}-3′-fluorobiphenyl-2-yl)oxy]-2,2-dimethylpropanoic acid], inhibition was half-maximal at 4 µM (IC50). This IC50 lies about 2.2-fold lower than the previous one.
Next, `C[C@@H](COc1ccccc1-c1cnc(C(=O)N2CCC(N3C(=O)C(C)(C)Oc4ncc(Cl)cc43)CC2)c(F)c1)C(=O)O` [Example 47, (2S)-3-[2-(6-{[4-(7-Chloro-3,3-dimethyl-2-oxo-2,3-dihydro-1H-pyrido[2,3-b][1,4]oxazin-1-yl)piperidin-1-yl]carbonyl}-5-fluoropyridin-3-yl)phenoxy]-2-methylpropanoic acid]: 2 µM.
Regarding `C[C@H](CC(=O)O)Oc1ccccc1-c1ccc(C(=O)N2CCC(N3C(=O)COc4ncc(Cl)cc43)CC2)c(F)c1` [Example 7, (3R)-3-[(4′-{[4-(7-Chloro-2-oxo-2,3-dihydro-1H-pyrido[2,3-b][1,4]oxazin-1-yl)piperidin-1-yl]carbonyl}-3′-fluorobiphenyl-2-yl)oxy]butanoic acid], 7.9 µM corresponded to half-maximal inhibition (IC50). This IC50 lies about 4-fold higher than the previous one.
Next, `CC(C)(COc1ccccc1-c1ccc(C(=O)N2CCC(N3C(=O)C(C)(C)Oc4ncc(C(F)(F)F)cc43)CC2)c(F)c1)C(=O)O` [Example 3, 3-{[4′-({4-[3,3-Dimethyl-2-oxo-7-(trifluoromethyl)-2,3-dihydro-1H-pyrido[2,3-b][1,4]oxazin-1-yl]piperidin-1-yl}carbonyl)-3′-fluorobiphenyl-2-yl]oxy}-2,2-dimethylpropanoic acid]: 3.8 µM; `CC(C)(COc1ccccc1-c1ccc(C(=O)N2CCC(N3C(=O)C(C)(C)Oc4ncc(Cl)cc43)CC2)c([N+](=O)[O-])c1)C(=O)O` [Example 22, 3-[(4′-{[4-(7-Chloro-3,3-dimethyl-2-oxo-2,3-dihydro-1H-pyrido[2,3-b][1,4]oxazin-1-yl)piperidin-1-yl]carbonyl}-3′-nitrobiphenyl-2-yl)oxy]-2,2-dimethylpropanoic acid]: 5.7 µM.
Under `C[C@@H](COc1ccc(F)cc1-c1cnc(C(=O)N2CCC(N3C(=O)C(C)(C)Cc4ncc(Cl)cc43)CC2)c(F)c1)C(=O)O` [Example 48, (2S)-3-[2-(6-{[4-(7-Chloro-3,3-dimethyl-2-oxo-3,4-dihydro-1,5-naphthyridin-1(2H)-yl)piperidin-1-yl]carbonyl}-5-fluoropyridin-3-yl)-4-fluorophenoxy]-2-methylpropanoic acid] stands 3.7 µM; under `C[C@H](CC(=O)O)Oc1ccc(F)cc1-c1ccc(C(=O)N2CCC(N3C(=O)COc4ncc(Cl)cc43)CC2)c(F)c1` [Example 31, (3R)-3-[(4′-{[4-(7-Chloro-2-oxo-2,3-dihydro-1H-pyrido[2,3-b][1,4]oxazin-1-yl)piperidin-1-yl]carbonyl}-3′,5-difluorobiphenyl-2-yl)oxy]butanoic acid], 18 µM.
Next, `CC1(C)Cc2ncc(Cl)cc2N(C2CCN(C(=O)c3ccc(-c4cc(F)ccc4OCCC(=O)O)cc3F)CC2)C1=O` [Example 37, 3-[(4′-{[4-(7-Chloro-3,3-dimethyl-2-oxo-3,4-dihydro-1,5-naphthyridin-1(2H)-yl)piperidin-1-yl]carbonyl}-3′,5-difluorobiphenyl-2-yl)oxy]propanoic acid]: 6.6 µM; `CC1(C)Oc2ncc(Cl)cc2N(C2CCN(C(=O)c3ccc(-c4ccccc4OCC4(C(=O)O)CC4)cc3F)CC2)C1=O` [Example 23, 1-{[(4′-{[4-(7-Chloro-3,3-dimethyl-2-oxo-2,3-dihydro-1H-pyrido[2,3-b][1,4]oxazin-1-yl)piperidin-1-yl]carbonyl}-3′-fluorobiphenyl-2-yl)oxy]methyl}cyclopropanecarboxylic acid]: 5.2 µM; `Cc1cnc2c(c1)N(C1CCN(C(=O)c3ccc(-c4ccccc4O[C@H](C)CC(=O)O)cc3F)CC1)C(=O)C(C)(C)O2` [Example 30, (3R)-3-[(4′-{[4-(3,3,7-Trimethyl-2-oxo-2,3-dihydro-1H-pyrido[2,3-b][1,4]oxazin-1-yl)piperidin-1-yl]carbonyl}-3′-fluorobiphenyl-2-yl)oxy]butanoic acid]: 2 µM.
As to `CC(C)(COc1ccccc1-c1ccc(C(=O)N2CCC(N3C(=O)C4(CC4)Oc4ncc(Cl)cc43)CC2)c(Cl)c1)C(=O)O` [Example 18, 3-[(3′-Chloro-4′-{[4-(7′-chloro-2′-oxospiro[cyclopropane-1,3′-pyrido[2,3-b][1,4]oxazin]-1′(2′H)-yl)piperidin-1-yl]carbonyl}biphenyl-2-yl)oxy]-2,2-dimethylpropanoic acid], 10 µM corresponded to half-maximal inhibition (IC50).
Under `C[C@@H](COc1ccccc1-c1ccc(C(=O)N2CCC(N3C(=O)CCc4ncc(Cl)cc43)CC2)c(F)c1)C(=O)O` [Example 12, (2S)-3-[(4′-{[4-(7-Chloro-2-oxo-3,4-dihydro-1,5-naphthyridin-1(2H)-yl)piperidin-1-yl]carbonyl}-3′-fluorobiphenyl-2-yl)oxy]-2-methylpropanoic acid] stands 16 µM; under `C[C@H](CC(=O)O)Oc1ccccc1-c1cnc(C(=O)N2CCC(N3C(=O)[C@H](C)Oc4ncc(Cl)cc43)CC2)c(F)c1` [Example 40, (3R)-3-{2-[6-({4-[(3S)-7-Chloro-3-methyl-2-oxo-2,3-dihydro-1H-pyrido[2,3-b][1,4]oxazin-1-yl]piperidin-1-yl}carbonyl)-5-fluoropyridin-3-yl]phenoxy}butanoic acid], 1.1 µM; under `C[C@@H](COc1ccc(F)cc1-c1cnc(C(=O)N2CCC(N3C(=O)C(C)(C)Oc4ncc(Cl)cc43)CC2)c(F)c1)C(=O)O` [Example 49, (2S)-3-[2-(6-{[4-(7-Chloro-3,3-dimethyl-2-oxo-2,3-dihydro-1H-pyrido[2,3-b][1,4]oxazin-1-yl)piperidin-1-yl]carbonyl}-5-fluoropyridin-3-yl)-4-fluorophenoxy]-2-methylpropanoic acid], 1.7 µM.
Next, `C[C@H](C(=O)O)[C@@H](C)Oc1ccccc1-c1ccc(C(=O)N2CCC(N3C(=O)C(C)(C)Oc4ncc(Cl)cc43)CC2)c(F)c1` [Example 33, (2S,3R)-3-[(4′-{[4-(7-Chloro-3,3-dimethyl-2-oxo-2,3-dihydro-1H-pyrido[2,3-b][1,4]oxazin-1-yl)piperidin-1-yl]carbonyl}-3′-fluorobiphenyl-2-yl)oxy]-2-methylbutanoic acid]: 16 µM; `C[C@H](CC(=O)O)Oc1ccccc1-c1ccc(C(=O)N2CCC(N3C(=O)CCc4ncc(Cl)cc43)CC2)c(F)c1` [Example 8, (3R)-3-[(4′-{[4-(7-Chloro-2-oxo-3,4-dihydro-1,5-naphthyridin-1(2H)-yl)piperidin-1-yl]carbonyl}-3′-fluorobiphenyl-2-yl)oxy]butanoic acid]: 14 µM.
